Legend:
Format in all cases: biochemical
recombinant human PAI-1 [1] = target: T1, recombinant human PAI-1 (Homo sapiens, UniProt P05121); assay: Test Example 2: human PAI-1 inhibitory activity (tPA fluorogenic substrate assay, pH7.4 HEPES buffer); conditions: for inhibition at 3 µM: pH 7.4, read-out: Inhibition Rate of Human PAI-1 Activity (%); for IC50: pH7.4 HEPES buffer, obtained from Table 5 results
T1 construct: purchased Molecular Innovations, Inc
Method: (§1) Except using the pH7.4 HEPES buffer instead of pH7.5 Tris buffer, and the change of incubation time from 15 minutes to 10 minutes of the mixed solution added by two-chain tPA solution, tests were carried out similarly to the Test Example 1.
<Compotion of pH7.4 HEPES Buffer>
0.1% Polyethylene glycol 8,000 (Hampton Research Corporation)
2 mM Dimethyldecylphoshine oxide [Apo-10] (Fluka Corporation)

recombinant rat PAI-1 = target: T2, recombinant rat PAI-1 (Rattus norvegicus, UniProt P20961); assay: Test Example 3: rat PAI-1 inhibitory activity (tPA fluorogenic substrate assay, pH7.4 HEPES buffer); conditions: for IC50: pH7.4 HEPES buffer, obtained from Table 7 results; for inhibition at 10 µM / inhibition at 3 µM: pH 7.4, read-out: Inhibition Rate of Rat PAI-1 Activity (%)
T2 construct: purchased Molecular Innovations, Inc
T2 sequence (P20961 24-402): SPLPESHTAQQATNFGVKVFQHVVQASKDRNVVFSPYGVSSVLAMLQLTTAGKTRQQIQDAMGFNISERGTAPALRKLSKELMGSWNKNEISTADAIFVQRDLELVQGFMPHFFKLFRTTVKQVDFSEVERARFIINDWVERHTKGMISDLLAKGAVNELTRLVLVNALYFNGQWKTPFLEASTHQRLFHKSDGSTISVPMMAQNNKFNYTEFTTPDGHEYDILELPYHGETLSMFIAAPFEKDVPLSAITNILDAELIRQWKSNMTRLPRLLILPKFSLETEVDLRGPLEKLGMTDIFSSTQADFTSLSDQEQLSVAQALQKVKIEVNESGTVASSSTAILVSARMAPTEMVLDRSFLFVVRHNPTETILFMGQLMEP
Method: as §1

recombinant human PAI-1 [2] = target: T1, recombinant human PAI-1; assay: Test Example 4: human PAI-1 inhibitory activity (amount of PAI-1 bound to plate-coated tPA, ELISA); conditions: PAI-1 50 ng/ml bound to coated tPA, read-out: Inhibition Rate of Human PAI-1 Activity (%); for inhibition at 0.1 µM: compound 0.1 μM; for inhibition at 0.3 µM: compound 0.3 μM
Method: 100 μl of tPA solution where one-chain recombinant tPA (hereinafter refereed to as tPA; American diagnostica, inc.) diluted with Buffer A to achieve a concentration of 10 μg/ml was added to each well of 96-well plate (Nunc Maxisorp), incubated for one night at […] to coated with tPA. Then, after suction of tPA solution from the 96-well plate, rinsed successively with Buffer A and Buffer B.
To Buffer B, solutions of the present application compound dissolved with DMSO (final DMSO concentration: 0.2%) and recombinant human PAI-1 (Molecular Innovations, Inc.) were added and blended so that the final concentrations would be 0.1 to 3.0 μM and 50 ng/ml respectively, and were incubated for 15 minutes on ice. These mixed solutions were added to rinsed 96-well plates at 100 μl/well, and incubated for 60 minutes at room temperature. To prepare calibration curve, PAI-1 solutions without the present application compound (solutions where the final concentrations being 100, 50, 25, 12.5, 6.25, 3.13, 1.56 ng/ml PAI-1) were added at 100 μl/well, and were incubated for 60 minutes at room temperature, as standard.
After incubation, the reaction mixture was suction removed, and rinsed each well with Wash Buffer. Next, anti-human PAI-1 monoclonal antibody (PROGEN Inc.) diluted with Buffer C to be 3.0 μg/ml was added to the 96-well plate at 100 μl/well, and incubated for 1 hour at room temperature. After rinsing each well with Wash Buffer, alkaline phosphatase-labeled goat anti-mouse IgG (H+L) (Jackson ImmunoResearch, Inc.) diluted with Buffer D to be 0.12 μg/ml was added at 100 μl/well, and incubated for 1 hour at room temperature. After rinsing each well with Wash Buffer, 1.0 mg/ml p-Nitrophenyl Phosphate (SIGMA) was added to the 96-well plate at 100 μl/well to start the reaction. After 30 to 60 minutes, 25 μl of 0.5 N NaOH was added to stop the reaction, and the absorbance was measured at 405 nm using a multiplate reader (GENios; TECAN G.M.B.H.).
Based on the calibration curve prepared from the standard wells, amounts of PAI-1 bound to tPA in the wells treated with the present application compound were calculated, and the PAI-1 inhibition rates by the present application compounds were obtained by the following equation. [PAI-1 Inhibition Rate (%)]=[1-(amount of PAI-1 bound to tPA on the well treated with the present application compound)/(amount of PAI-1 bound to tPA on the well treated with PAI-1 solution without present application compound (solution with the final concentration of 50 ng/ml PAI-1)]×100 <Composition of Buffer A> 0.1 M Tris-HCl-150 150 mM NaCl pH 7.7 <Composition of Buffer B> 50 mM sodium phosphate 0.1 M NaCl 1 mM EDTA pH 6.6 <Composition of Buffer C> 50 mM sodium phosphate 100 mM NaCl pH 7.4 <Composition of Buffer D> 0.01 M Tris-HCl 0.25 M NaCl pH 8.0 <Composition of Wash Buffer> 0.05% Tween 20 0.1% BSA in Buffer A <Composition of p-Nitrophenyl Phosphate Solution> 1 M Diethanolamine 0.5 mM MgCl2 p-Nitrophenyl phosphate pH 9.8

T1 sequence (P05121 24-402): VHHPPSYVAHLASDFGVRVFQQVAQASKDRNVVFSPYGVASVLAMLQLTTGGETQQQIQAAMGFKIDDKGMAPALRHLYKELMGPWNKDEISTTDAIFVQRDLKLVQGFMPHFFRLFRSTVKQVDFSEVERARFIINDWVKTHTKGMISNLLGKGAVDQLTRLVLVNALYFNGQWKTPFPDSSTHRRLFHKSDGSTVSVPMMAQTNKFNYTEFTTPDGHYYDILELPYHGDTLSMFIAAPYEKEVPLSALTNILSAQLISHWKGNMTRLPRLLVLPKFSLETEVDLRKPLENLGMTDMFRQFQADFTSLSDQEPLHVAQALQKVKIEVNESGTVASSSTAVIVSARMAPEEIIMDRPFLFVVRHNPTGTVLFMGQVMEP

Row | SMILES | inhibition at 3 µM (recombinant human PAI-1 [1]) | IC50 (recombinant human PAI-1 [1]) | IC50 (recombinant rat PAI-1) | inhibition at 0.1 µM (recombinant human PAI-1 [2]) | inhibition at 10 µM (recombinant rat PAI-1) | inhibition at 0.3 µM (recombinant human PAI-1 [2]) | inhibition at 3 µM (recombinant rat PAI-1)
1 | CCC(CC)Oc1ccc(N(Cc2ccc(C(C)(C)C)cc2)C(=O)C(=O)O)cc1-c1ccc(OC(F)(F)F)cc1 [compound 77, N-[4-(tert-butyl)benzyl]-N-[2-(1-ethylpropoxy)-4′-(trifluoromethoxy)biphenyl-5-yl]oxamic Acid] | > 99% | 1040 nM | 1420 nM | 12% |  |  | 
2 | CCCOc1ccc(N(Cc2ccc(C(C)(C)C)cc2)C(=O)C(=O)O)cc1-c1ccc(OC(F)(F)F)cc1 [compound 65, N-[4-(tert-butyl)benzyl]-N-[2-propoxy-4′-(trifluoromethoxy)biphenyl-5-yl]oxamic Acid] | > 99% | 1150 nM | 1720 nM | 0% |  |  | 
3 | Cc1ccc(N(Cc2ccc(C(C)(C)C)cc2)C(=O)C(=O)O)cc1-c1ccc(OC(F)(F)F)cc1 [compound 56, N-[4-(tert-butyl)benzyl]-N-[2-methyl-4′-(trifluoromethoxy)biphenyl-5-yl]oxamic Acid] |  | 1400 nM | 1870 nM | 4% | > 99% |  | 
4 | CCCCOc1ccc(-c2ccc(OC(F)(F)F)cc2)cc1N(Cc1ccc(C(C)(C)C)cc1)C(=O)C(=O)O [compound 69, N-[4-(tert-butyl)benzyl]-N-[4-butoxy-4′-(trifluoromethoxy)biphenyl-3-yl]oxamic Acid] |  | 880 nM | 1280 nM | 0% | > 99% |  | 
5 | CCCOc1ccc(N(Cc2ccc(C(C)(C)C)cc2)C(=O)C(=O)O)c(-c2ccc(OC(F)(F)F)cc2)c1 [compound 78, N-[4-(tert-butyl)benzyl]-N-[5-propoxy-4′-(trifluoromethoxy)biphenyl-2-yl]oxamic Acid] | > 99% | 1080 nM | 1840 nM | 0% |  |  | 
6 | CCCCc1ccc(CN(C(=O)C(=O)O)c2ccc(-c3ccc(C(C)(C)C)cc3)cc2)cc1 [compound 86, N-(4-butylbenzyl)-N-[4′-(tert-butyl)biphenyl-4-yl]oxamic Acid] | > 99% | 730 nM | 1390 nM | 0% |  | 0% | 
7 | CC(C)(C)c1ccc(CN(C(=O)C(=O)O)c2ccc(Oc3ccc(OC(F)(F)F)cc3)cc2C(F)(F)F)cc1 [compound 54, N-[4-(tert-butyl)benzyl]-N-{4-[4-(trifluoromethoxy)phenoxy]-2-(trifluoromethyl)phenyl}oxamic Acid] |  | 1320 nM | 2040 nM | 0% |  | 0% | 
8 | CC(C)(C)c1ccc(CN(C(=O)C(=O)O)c2ccc(Cl)c(-c3ccc(OC(F)(F)F)cc3)c2)cc1 [compound 66, N-[4-(tert-butyl)benzyl]-N-[2-chloro-4′-(trifluoromethoxy)biphenyl-5-yl]oxamic Acid] | > 99% | 1140 nM | 1550 nM | 6% |  |  | 
9 | CC(C)(C)c1ccc(CN(C(=O)C(=O)O)c2cccc(-c3ccc(OC(F)(F)F)cc3)c2)cc1 [compound 9, N-[4-(tert-butyl)benzyl]-N-[4′-(trifluoromethoxy)biphenyl-3-yl]oxamic Acid] |  | 1710 nM | 2760 nM | 0% | > 99% |  | 
10 | CCC(CC)Oc1ccc(-c2ccc(OC(F)(F)F)cc2)cc1N(Cc1ccc(C(C)(C)C)cc1)C(=O)C(=O)O [compound 79, N-[4-(tert-butyl)benzyl]-N-[4-(1-ethylpropoxy)-4′-(trifluoromethoxy)biphenyl-3-yl]oxamic Acid] | > 99% | 740 nM | 1180 nM | 8% | > 99% |  | 
11 | CC(C)(C)c1ccc(CN(C(=O)C(=O)O)c2cccc(Oc3ccc(OC(F)(F)F)cc3)c2)cc1 [compound 52, N-[4-(tert-butyl)benzyl]-N-{3-[4-(trifluoromethoxy)phenoxy]phenyl}oxamic Acid] |  | 1840 nM | 3040 nM |  |  |  | 
12 | CC(C)(C)c1ccc(CN(C(=O)C(=O)O)c2ccc(-c3ccc(OC(F)(F)F)cc3)cc2)cc1 [compound 8, N-[4-(tert-butyl)benzyl]-N-[4′-(trifluoromethoxy)biphenyl-4-yl]oxamic Acid] |  | 1630 nM | 3130 nM | 0% |  |  | 
13 | CC(C)(C)c1ccc(COc2ccc(-c3ccc(OC(F)(F)F)cc3)cc2N(Cc2ccccc2)C(=O)C(=O)O)cc1 [compound 59, N-benzyl-N-{4-[4-(tert-butyl)benzyloxy]-4′-(trifluoromethoxy)biphenyl-3-yl}oxamic Acid] | > 99% | 660 nM | 1110 nM |  | > 99% |  | > 99%
14 | CC(C)(C)c1ccc(CN(C(=O)C(=O)O)c2ccc(Cl)cc2-c2ccc(OC(F)(F)F)cc2)cc1 [compound 72, N-[4-(tert-butyl)benzyl]-N-[5-chloro-4′-(trifluoromethoxy)biphenyl-2-yl]oxamic Acid] | > 99% | 1060 nM | 2140 nM |  |  |  | 
15 | CC(C)(C)c1ccc(CN(C(=O)C(=O)O)c2cc(-c3ccc(OC(F)(F)F)cc3)cc(C(F)(F)F)c2)cc1 [compound 18, N-[4-(tert-butyl)benzyl]-N-[4′-(trifluoromethoxy)-5-(trifluoromethyl)biphenyl-3-yl]oxamic Acid] |  | 1250 nM | 1610 nM | 0% |  |  | 
16 | CCCOc1ccc(-c2ccc(OC(F)(F)F)cc2)cc1N(Cc1ccc(C(C)(C)C)cc1)C(=O)C(=O)O [compound 68, N-[4-(tert-butyl)benzyl]-N-[4-propoxy-4′-(trifluoromethoxy)biphenyl-3-yl]oxamic Acid] |  | 1180 nM | 1790 nM |  | > 99% |  | 
17 | CC(C)(C)c1ccc(CN(C(=O)C(=O)O)c2ccc(-c3ccc(OC(F)(F)F)cc3)cc2Cl)cc1 [compound 26, N-[4-(tert-butyl)benzyl]-N-[3-chloro-4′-(trifluoromethoxy)biphenyl-4-yl]oxamic Acid] |  | 1170 nM | 2160 nM |  |  |  | 
18 | CCCCOc1ccc(N(Cc2ccc(C(C)(C)C)cc2)C(=O)C(=O)O)cc1-c1ccc(OC(F)(F)F)cc1 [compound 73, N-[4-(tert-butyl)benzyl]-N-[2-butoxy-4′-(trifluoromethoxy)biphenyl-5-yl]oxamic Acid] | > 99% | 1130 nM | 1820 nM |  |  |  | 
19 | CC(C)(C)c1ccc(CN(C(=O)C(=O)O)c2cc(C(F)(F)F)ccc2-c2ccc(OC(F)(F)F)cc2)cc1 [compound 48, N-[4-(tert-butyl)benzyl]-N-[4′-(trifluoromethoxy)-4-(trifluoromethyl)biphenyl-2-yl]oxamic Acid] |  | 1140 nM | 2450 nM |  |  |  | 61%
